We go through four compounds from patent US20230257385A1, “SALT AND SOLID FORMS OF TABERNANTHALOG” (priority 2021, published 2023).

Series [1] in a line: Heat-up/cool-down crystallisation screen of sorbate salt (Example 10, Experiments 5, 8). The format is physicochemical. The note with it: Experiment 8; repeat of HUCD crystallisations; dried ca. 2 h under N2 flux at ambient temperature.
Experiment in series [2]: as above
The note with it: Experiment 8; repeat of HUCD crystallisations aiming at Pattern #1 (water) and Pattern #6 (heptane/ethyl formate); wet pellet. The format is physicochemical. The protocol: The relevant solvent (0.225 ml, 3.0 vol) was added to the appropriate vial and the suspensions were stirred and warmed to temperature. If dissolution was not observed, further solvent was added until the solute dissolved, or aliquots of a secondary co-solvent were added to complete dissolution. Once dissolved, the solutions were left to cool down and stand undisturbed under sub-ambient conditions for several days. After crystallisation was judged complete, the products were isolated by centrifugation and the pellets were dried at 40° C. under reduced pressure. Products from the crystallisation (wet and dry) were initially analysed by XRPD (9-minute method), further analyses of certain products were performed by ^1H NMR, DSC and TGA, if the diffraction pattern indicated differences.

Series [3] can be described thus: Stability assessment at 40° C./75% RH (open vial / double bagged open vial). The format is physicochemical. The note with it: 4-to-5-week period. Here is the method: FIG. 62 depicts the XRPD diffractogram overlay of the time point monitoring of 2-A (open vial) at 75% RH at 40° C. Overlay of, from bottom to top, the tabernanthalog monofumarate (Sample Reference 1, t=0), 2-A1 (t=3 h), 2-A2 (t=24 h), 2-A3 (t=48 h), 2-A4 (t=7 days), 2-A5 (t=2 weeks), 2-A6 (t=3 weeks), 2-A7 (t=4 weeks), 2-A8 (t=5 weeks).
FIG. 63 depicts the XRPD diffractogram overlay of the time point monitoring of 2-B (double bagged open vial) at 75% RH at 40° C. Overlay of, from bottom to top, the tabernanthalog monofumarate salt (Sample Reference 1, t=0), 2-B1 (t=3 h), 2-B2 (t=24 h), 2-B3 (t=48 h), 2-B4 (t=7 days), 2-B5 (t=2 weeks), 2-B6 (t=3 weeks), 2-B7 (t=4 weeks), 2-B8 (t=5 weeks).

Series [4] can be described thus: DVS analyses of the monofumarate salt (Example 5, Experiment Reference 4). The format is physicochemical. The note with it: mass equilibrated, 0 to 90% to 0% RH, 25° C. The protocol: (§1) The moisture sorption properties of the feed API were analyzed by DVS Intrinsic instrument (Surface Measurement System). Approximately 20 to 50 mg of API was weighed onto an aluminum pan and loaded into the instrument equilibrated at 25° C. The sample was equilibrated under a dry atmosphere (0% relative humidity) for 60 minutes, before increasing the humidity from 0% to 30% at 5% step increment and from 30% to 90% at 10% step increment. A desorption cycle was also applied from 90% to 30% (10% step decrement) and from 30% to 0% (5% step decrement). A rate of change in mass per time unit (dm/dt) of 0.002%/min was set as the equilibrium parameter. Kinetic and isotherm graphs were calculated.
as §1, with “feed API (active pharmaceutical ingredient) were analyzed” for “feed API were analyzed”, “step decrement). […] Kinetic and” for “step decrement). A rate of change in mass per time unit (dm/dt) of 0.002%/min was set as the equilibrium parameter. Kinetic and”, “were calculated. […]” for “were calculated.”

Series [5] is described as follows: Equilibrium humidity evaluation 75% RH/40° C., 10 days (Example 8, Experiment 6). The format is physicochemical. The note with it: 75% RH/40° C. In a few lines:
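Tabernanthalog salt powders (100 mg) were spread evenly in open vials and held at 40 °C and 75% RH. Sub-samples taken at 5 and 10 days were analysed by ^1H NMR, HPLC, XRPD, DSC, TGA and PLM for phase change, chemical degradation and residual solvent.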

A short description of series [6]: Dynamic vapour sorption (DVS) of selected salts (Example 8). The format is physicochemical. The note with it: 0 to 90 to 0% RH, 25° C., dm/dt 0.002%/min. In a few lines:
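Sorption/desorption isotherms on 20–50 mg sample at 25°C after 60 min at 0% RH: 5% steps to 30%, 10% steps to 90%, then reverse. Equilibrium criterion dm/dt 0.002%/min; kinetic and isotherm curves derived.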

A short description of series [7]: Solubility determinations in SIF buffers FaSSIF, FeSSIF, FaSSGF (Example 8, Experiment 5). The note with it: 37 °C, thermodynamic from solid. In a few lines:
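Suspensions in FaSSIF, FeSSIF or FaSSGF held at 37° C for 24 h, sampled at set time points and centrifuged. Pellets checked by XRPD, wet and dried, for form change.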

For the next series, the target named is 5-HT2A (Homo sapiens, UniProt P28223). The note with it: reported by Dong et al., Olson et al., Cameron et al.; cited from earlier work.
5-HT2A, sequence (P28223 whole entry): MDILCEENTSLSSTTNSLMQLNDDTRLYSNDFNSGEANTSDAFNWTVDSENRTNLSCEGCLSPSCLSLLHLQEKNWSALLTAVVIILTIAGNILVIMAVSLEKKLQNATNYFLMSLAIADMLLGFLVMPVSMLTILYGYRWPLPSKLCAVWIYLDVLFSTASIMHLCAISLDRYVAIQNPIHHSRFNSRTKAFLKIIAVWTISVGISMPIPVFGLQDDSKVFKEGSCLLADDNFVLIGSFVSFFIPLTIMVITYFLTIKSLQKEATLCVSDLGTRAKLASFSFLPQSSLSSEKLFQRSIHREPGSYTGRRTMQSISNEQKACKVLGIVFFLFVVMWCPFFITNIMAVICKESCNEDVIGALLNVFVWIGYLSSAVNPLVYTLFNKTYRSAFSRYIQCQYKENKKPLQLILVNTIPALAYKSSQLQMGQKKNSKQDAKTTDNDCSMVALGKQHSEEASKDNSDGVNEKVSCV
Series [8] in a line: Calibration curve of non-ionized Tabernanthalog / HPLC sample diluent selection. The note with it: acetonitrile/water. The format is physicochemical. From the text:
Separate portions of Tabernanthalog (native) were weighed out into aluminum boats and were charged to the relevant volumetric flasks. […] Peak areas of the calibrants were plotted against concentration to generate the corresponding calibration curve with slope 27622 and R^2 0.9917 (FIG. 437).
It is noted that tabernanthalog is insoluble in typical HPLC sample diluents, acetonitrile/water. Therefore, DMSO and water were investigated as sample diluents.
Thus, DMSO/water (1/1, v/v) was selected as the appropriate diluent composition to perform the study and generate the calibration curve, for the SIF panel solubility.

For series [9] the following is noted: reported by Dong et al., Olson et al., Cameron et al.; cited from earlier work.

Regarding `CC=CC=CC(=O)O.COc1ccc2c3c([nH]c2c1)CCN(C)CC3` [Experiment 8-Sample B], the “XRPD (under nitrogen flow)” value in [1] is reported as “Form A”. The “XRPD (centrifuged, wet)” value in series [2] is recorded as “Form A”.
As to `COc1ccc2c3c([nH]c2c1)CCN(C)CC3` [tabernanthalog monofumarate Pattern #1], the stability assessment entry in series [3] is reported as “no evidence for hydrate formation, chemical degradation or disproportionation”.
In the case of `COc1ccc2c3c([nH]c2c1)CCN(C)CC3.O=C(O)/C=C/C(=O)O` [8-Methoxy-3-methyl-2,4,5,6-tetrahydro-1H-azepino[4,5-b]indole fumarate salt (polymorph Form A)], the DVS isotherm result in series [4] was “hygroscopic isotherm with negligible hysteresis”. In series [5] (after 10 days), the “change in chemical purity (trended HPLC)” value is reported as “slight decrease in chemical purity”. Moreover, the “water uptake / hydrate formation (TGA, DSC)” value in series [5] (t=5 d and t=10 d) is “no significant water uptake”. For the same compound, the “powder diffraction pattern versus input (form stability)” value in [5] (t=5 days and t=10 days) is recorded as “resembled the input phase”. Besides, the DVS sorption/desorption isotherm entry in series [6] is listed as “hygroscopic isotherm, with negligible hysteresis”. Besides, the solubility at 24 h in series [7] (pH 1.6, fassgf or other biorelevant) is over 30 mg/mL; in [7] (pH 5, fessif), over 30 mg/mL; in series [7] (pH 6.5, fassif), over 30 mg/mL.
Consider `COc1ccc2c3c([nH]c2c1)CCN(C)CC3` [tabernanthalog, 8-methoxy-3-methyl-1,2,3,4,5,6-hexahydroazepino[4,5-b]indole], for which the 5-HT2A activity result on 5-HT2A was “have 5-HT2A activity”. In addition, the “solubility in typical HPLC sample diluents” value in [8] was “insoluble”. Besides, in series [9], the hallucinogenic effect result is reported as “non-hallucinogenic”.

What is called solubility is the dissolved amount per volume that the medium holds. Low values mean a poorly soluble substance, high ones a readily soluble substance.
